# Results: patent US11911436B2, “Amphiphilic peptide chaperones and methods of use” (priority 2021, dated 2024)
# Marks after values point to notes of the source that are not given here.
# Assays:
# [1] = test system: human primary lens epithelial (HLE-1°) cells; experiment: Melittin cytotoxicity, cell viability imaging; assay type: cell-based; settings: 1 μM melittin, 45 min
# Description: The ability of CPAMC peptide to block the cytotoxic action of melittin on human primary lens epithelial (HLE-1°) cells was investigated. Cell viability imaging was performed with dead cells identified by fluorescent staining. HLE-1° cells cultured on a 96-well plate were treated with 1 μM melittin and/or different concentrations of CPAMC peptide for 45 min. At the end of the incubation, cell viability imaging was done using the EarlyTox cell integrity kit (Molecular Devices, Sunnyvale, Calif.) (FIG. 4A). The percentage of dead cells in each sample was calculated from the live/dead cell imaging data using the Softmax Pro software (FIG. 4B).
# [2] = test system: C. elegans (N2 strain); experiment: Thermotolerance assay, continuous heat stress at 35° C.; assay type: in vivo; settings: N2 worms
# Description: The lifespan of wild type C. elegans with and without peptide at a restrictive temperature was measured.
# A schematic representation of the thermotolerance assay used is shown (FIG. 11A). 24 hours of 50 μg peptide treatment at 20° C. of a synchronized population of wild type C. elegans was followed by a continuous heat stress at 35° C. Worms were scored every two hours for 24 hours for survival.
# [3] = test system: C. elegans (N2) worms; experiment: Juglone (JG)-induced oxidative stress survival; assay type: in vivo; settings: N2 worms at day 5, 50 μg peptide 24 h, 50 μM JG
# Description: N2 worms at day 5 pretreated for 24 h with 50 μg CPAMC or CP-SC (control) and subjected to 50 μM JG. Survival was checked every hour under a microscope until the end of survival. The median survival value in CPAMC and CP-SC (control) peptides corresponds to 7.3 h and 5.9 h, respectively, compared to vehicle control (4.9 h) (FIG. 15).
# [4] = test system: ARPE-19 cells; experiment: Sodium iodate-induced oxidative stress, DCFH-DA staining; assay type: cell-based; settings: 7.5 mM sodium iodate, 24 hrs
# Description: The ability of CPPRAMC and CPAMC to suppress sodium iodate-induced oxidative stress in ARPE-19 cells was also assessed. ARPE-19 cells seeded on a 96-well plate were treated with 7.5 mM of sodium iodate and peptides in 100 μl of serum-free DMEM/F12 media for 24 hrs. The cells were then stained with 10 μM DCFH-DA for 30 min at 37° C. in the dark and the cells were observed under the EVOS FL Auto2 imaging system (Thermo Fisher Scientific, Waltham, Mass., USA) with 10× magnification.
# [5] = test system: human red blood cells; experiment: Melittin-induced hemolysis of human RBC; assay type: cell-based; settings: 2% human RBC, room temperature 30 min, OD 540 nm
# Description: Hemolysis of human red blood cells with melittin was measured with varying concentrations of CPAMC (FIG. 3). To 0.3 mL of 2% human RBC (red blood cell) suspension was added 2 μM melittin and/or peptides taken in 0.7 mL of PBS. The tubes were incubated at room temperature for 30 min, centrifuged, and the OD of the supernatant was measured at 540 nm. PBS and PBS containing 0.1% TritonX-100 served as negative and positive control, respectively.
# The protective effect of Myr-CPAMC peptide of human red blood cells (RBC) from melittin-induced hemolysis was also examined. To 0.3 mL of 2% human RBC suspension was added to melittin and/or peptide taken in 0.7 mL of PBS. The tubes were incubated at room temperature for 30 min, centrifuged (FIG. 5A) and the OD of the supernatant was measured at 540 nm. PBS and PBS containing 0.1% TritonX-100 served as negative and positive control, respectively.
# [6] = test system: CL4176 C. elegans; experiment: CL4176 Aβ-induced paralysis and survival assay; assay type: in vivo; settings: CL4176 worms
# Description: CL4176 C. elegans is a temperature sensitive strain. Worms are maintained at 15° C. and shifted to increased temperature to cause Aβ-induced paralysis in adults. This has been used as a C. elegans model of Alzheimer's disease.
# A scheme of a paralysis assay with CL4176 worms is shown (FIG. 13A). Peptide treatment began on CL4176 embryos and continued throughout the experiment. After 2 days at 15° C., the temperature was increased to the restrictive temperature of 25° C. Worms were scored for survival and paralysis.
# Example images of paralyzed and non-paralyzed worms are shown (FIG. 13C).
# [7] = test system: HEK293 IL-6 reporter cells; experiment: IL-6 signaling, STAT3-stimulated SEAP reporter; assay type: cell-based; settings: human recombinant IL-6 and peptides, 1 hr
# Description: HEK293 IL-6 reporter cells were treated with human recombinant IL-6 and the peptides for 1 hr. The STAT3-stimulated SEAP activity in the culture supernatant was measured using QUANTI-Blue solution (InvivoGen) (FIG. 19B).
# [8] = test system: C. elegans wild-type (N2 strain); experiment: Paraquat (PQ)-induced oxidative stress survival; assay type: in vivo; settings: five-day old N2 worms, 50 μg peptide 24 hours, 50 mM PQ
# Description: Five-day old N2 worms were pretreated with 50 μg peptide for 24 hours and subjected to 50 mM PQ. The survival of the worms was monitored every hour under a microscope until the end of survival. […] The median survival value (50% survival) in CPPRAMC, CPAMC, and CP-SC (control) peptides corresponds to 9.6 h, 8.9 h and 5.9 h, respectively, as compared to vehicle control (5.5 h) (FIG. 14).
# [9] = test system: CL2006 C. elegans; experiment: CL2006 lifespan at 20° C. (paralysis and death model); assay type: in vivo; settings: CL2006 worms, 50 μg peptide
# Description: CL2006 C. elegans were used as a paralysis and death model. Worms are maintained at 15° C., with adult onset paralysis induced at 20° C.
# 50 μg CPAMC and CPPRAMC peptide or controls were added to CL2006 worms, and the fraction left alive over time at the restrictive temperature of 20° C. was quantified (FIG. 12). […] (FIG. 12).
# [10] = test system: wild-type C. elegans (N2); experiment: C. elegans N2 lifespan assay at 20° C. with peptide feeding; assay type: in vivo; settings: N2 worms
# Description: A schematic of an assay of C. elegans N2 lifespan at 20° C. is shown (FIG. 10A). This involved peptide treatment (50 μg) with E. coli OP50 as a food source. Plates were changed every second day with 50 μg fresh peptide and OP50. Scoring of survival was done every day to the last day of survival. 50 mM FUdR was added in experimental plates between D1 and D5 to prevent progeny production.
substance,measurement,setting,value
"CH3-LFVIFLVHFSPGRDEDKDEK-NH2 (Me-LFVIFLVHFSPGRDEDKDEK-NH2) [CPAMC, Cell-penetrable, amphiphilic mini chaperone synthesized with L-amino acids]",percentage of dead cells with melittin and peptide,[1],blocks the cytotoxic action of melittin
same,% increase in survival,"[2]; 35° C., 50 μg peptide, vs control",31* %
same,Median survival ± SE (hours at 35° C.),"[2]; 24 hours 50 μg peptide at 20° C., then 35° C.",11.0 ± 0.4 h
same,median survival value,[3],7.3 h
same,oxidative stress by DCFH-DA staining,[4],reduce or block the oxidative stress induced by sodium iodate
same,hemolysis by melittin in presence of peptide,[5],Hemolysis decreased as concentration of CPAMC increased
same,delay of Aβ-induced paralysis,[6]; 25° C.,delay of CL4176 worm paralysis compared to controls
same,% increase in median survival,"[6]; 25° C., vs control",12%
same,Median survival Hours ± SE,"[6]; 2 days at 15° C., then 25° C.",49.6 ± 0.5 h
same,IL-6 signaling (STAT3-stimulated SEAP activity),[7],IL-6 signaling is also suppressed
same,median survival value (50% survival),[8],8.9 h
same,Median survival ± SE (days at 20° C.),[9],7.7 ± 0.28 days
same,% increase in survival,[9]; vs control,11.6%
same,Median Lifespan (Days ± SE),[10]; 50 μg peptide with E. coli OP50,18.23 ± 0.25 days
same,Increase in median survival (%),"[10]; 50 μg peptide, vs control",36* %
